The experiment relates to rats of the strain HsdCpb:Wu. The experiment can be described thus: Increased bone formation in rats after 4 weeks of once-daily administration via stomach tube. The format is in vivo. To be noted: once per day via stomach tube, male and female rats, all test animals. On the procedure: For a period of 4 weeks, one of the two compounds listed in Table 1 was administered, in each case in one of the concentrations given in Table 1, once per day via a stomach tube to 10 male and 10 female rats of the strain HsdCpb:Wu. […] Pathological endosteal or periosteal changes were not noticed.

Each structure is given as a SMILES string.

Turning to `Nc1nc(-c2nn(Cc3ccccc3F)c3ncccc23)ncc1C1CC1` [Compound 1], where the note is “50 mg/kg or more”, the “bone formation in the area of the spongioid bone proximally and distally to the epiphyseal arcus of the great tubular bones” value is “increased bone formation”. As to `Nc1nc(-c2nn(Cc3ccccc3F)c3ncccc23)nc(N)c1N1CCOCC1` [Compound 2], the “bone formation in the area of the spongioid bone proximally and distally to the epiphyseal arcus of the great tubular bones” value (5 mg/kg or more) is recorded as “increased bone formation”.
